Results: PubChem BioAssay (NCI)
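A five-concentration, 48-hour dose response in 96-well plates underlies each endpoint, interpolated linearly between surrounding concentrations. Abbreviation: GI50, concentration required for 50% inhibition of growth. The concentration for full growth arrest is given as TGI.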

What was measured:
Test in all cases: DTP human tumour cell line panel, 48 h
[1] = test system: A549 NSCLC
[2] = test system: BT-549 breast
[3] = test system: COLO 205 colon
[4] = test system: EKVX NSCLC
[5] = test system: HT29 colon
[6] = test system: IGROV1 ovarian
[7] = test system: MCF7 breast
[8] = test system: MDA-N
[9] = test system: OVCAR-5 ovarian
[10] = test system: PC-3 prostate
[11] = test system: RXF 393 renal
[12] = test system: SF-539 CNS
[13] = test system: SK-MEL-28 melanoma
[14] = test system: SNB-75 CNS

Cc1nc2c(n1CCCl)C(=O)c1ccccc1C2=O
TGI [1]: > 100 µM
TGI [2]: 38.3 µM
TGI [3]: 30.2 µM
TGI [4]: > 100 µM
TGI [5]: 44.7 µM
TGI [6]: 41.6 µM
TGI [7]: 41.6 µM
TGI [8]: 32.6 µM
TGI [9]: 36.3 µM
TGI [10]: 46.1 µM
TGI [11]: 46.2 µM
TGI [12]: > 100 µM
TGI [13]: > 100 µM
TGI [14]: > 100 µM

COc1c(C(=O)O)cccc1-c1cccc(C(=O)NCCN(CCNC(=O)c2cccc(-c3cccc(C(=O)O)c3OC)c2OC)CCNC(=O)c2cccc(-c3cccc(C(=O)O)c3OC)c2OC)c1OC
TGI [1]: > 100 µM
TGI [2]: > 100 µM
TGI [3]: 62.9 µM
TGI [4]: > 100 µM
TGI [5]: > 100 µM
TGI [6]: > 100 µM
TGI [7]: > 100 µM
TGI [8]: 23.8 µM
TGI [9]: > 100 µM
TGI [10]: > 100 µM
TGI [11]: > 100 µM
TGI [12]: > 100 µM
TGI [13]: > 100 µM
TGI [14]: > 100 µM

CCN(CC)CCN1CCN=c2c3cc(OC)ccc3n3cnc4ccc1c2c43
TGI [1]: 2.78 µM
TGI [2]: 3.26 µM
TGI [3]: 2.6 µM
TGI [4]: 3.21 µM
TGI [5]: 1.81 µM
TGI [6]: 2.45 µM
TGI [7]: 0.847 µM
TGI [8]: 1.79 µM
TGI [9]: 5.77 µM
TGI [10]: 1.63 µM
TGI [11]: 1.52 µM
TGI [12]: 0.969 µM
TGI [13]: 3.51 µM
TGI [14]: 2.27 µM

Cc1ccc(S(=O)(=O)Oc2coc(CO)cc2=O)cc1
TGI [1]: 28.1 µM
TGI [2]: 39.2 µM
TGI [3]: 28.6 µM
TGI [4]: 30.1 µM
TGI [5]: 30.4 µM
TGI [6]: 34.5 µM
TGI [7]: 22.1 µM
TGI [8]: 25.8 µM
TGI [9]: 31.8 µM
TGI [10]: 38.2 µM
TGI [11]: 30 µM
TGI [12]: 87.8 µM
TGI [13]: 36.6 µM
TGI [14]: 33.3 µM

CNC(=O)C(C)NC(=O)C(Cc1ccccc1)NC(=O)OC(C)(C)C (centres undefined)
TGI [1]: > 100 µM
TGI [2]: > 100 µM
TGI [3]: > 100 µM
TGI [4]: > 100 µM
TGI [5]: > 100 µM
TGI [6]: > 100 µM
TGI [7]: > 100 µM
TGI [8]: > 100 µM
TGI [9]: > 100 µM
TGI [10]: > 100 µM
TGI [11]: > 100 µM
TGI [12]: > 100 µM
TGI [13]: > 100 µM
TGI [14]: > 100 µM

C=C(CO)[C@H]1CC/C(C)=C/CC/C(C)=C/C/C=C(\C)[C@H](O)C1
TGI [1]: > 100 µM
TGI [2]: 44.2 µM
TGI [3]: 59.9 µM
TGI [4]: > 100 µM
TGI [5]: 35 µM
TGI [6]: 36.1 µM
TGI [7]: 60.8 µM
TGI [8]: > 100 µM
TGI [9]: > 100 µM
TGI [10]: > 100 µM
TGI [11]: 42.1 µM
TGI [12]: 40.8 µM
TGI [13]: 31.2 µM
TGI [14]: 78.9 µM

O=c1[nH]c2nccn2c(Cl)c1Br
TGI [1]: > 100 µM
TGI [2]: 47.2 µM
TGI [3]: 34.4 µM
TGI [4]: 40.3 µM
TGI [5]: 48.8 µM
TGI [6]: 45.4 µM
TGI [7]: > 100 µM
TGI [8]: 45.8 µM
TGI [9]: 49.1 µM
TGI [10]: > 100 µM
TGI [11]: 20.8 µM
TGI [12]: > 100 µM
TGI [13]: 36 µM
TGI [14]: 77.8 µM

Cc1nn(-c2ccccc2)c2nc3c(c(C)nn3-c3ccccc3)c(-c3ccccc3Br)c12
TGI [1]: > 100 µM
TGI [2]: > 100 µM
TGI [3]: > 100 µM
TGI [4]: > 100 µM
TGI [5]: > 100 µM
TGI [6]: > 100 µM
TGI [7]: > 100 µM
TGI [8]: > 100 µM
TGI [9]: > 100 µM
TGI [10]: > 100 µM
TGI [11]: > 100 µM
TGI [12]: > 100 µM
TGI [13]: > 100 µM
TGI [14]: > 100 µM

CCCOc1ccc(/C=C/C2=[N+](CCO)CCO2)cc1
TGI [1]: > 100 µM
TGI [2]: > 100 µM
TGI [3]: > 100 µM
TGI [4]: > 100 µM
TGI [5]: > 100 µM
TGI [6]: > 100 µM
TGI [7]: > 100 µM
TGI [8]: > 100 µM
TGI [9]: > 100 µM
TGI [10]: > 100 µM
TGI [11]: > 100 µM
TGI [12]: > 100 µM
TGI [13]: > 100 µM
TGI [14]: > 100 µM

O=c1oc2ccccc2c(O)c1C(c1ccc2ccccc2c1)c1c(O)c2ccccc2oc1=O
TGI [1]: > 100 µM
TGI [2]: 60.8 µM
TGI [3]: 78.2 µM
TGI [4]: > 100 µM
TGI [5]: 33.8 µM
TGI [6]: 90.3 µM
TGI [7]: > 100 µM
TGI [8]: 68.9 µM
TGI [9]: 62 µM
TGI [10]: > 100 µM
TGI [11]: > 100 µM
TGI [12]: 68.9 µM
TGI [13]: 80.1 µM
TGI [14]: 48.7 µM

Cc1cc(Cl)ccc1NC(=O)/C(CC(=O)CC(c1ccccc1)c1c(O)c2ccccc2oc1=O)=N\O (centres undefined)
TGI [1]: > 100 µM
TGI [2]: > 100 µM
TGI [3]: > 100 µM
TGI [4]: > 100 µM
TGI [5]: > 100 µM
TGI [6]: > 100 µM
TGI [7]: > 100 µM
TGI [8]: > 100 µM
TGI [9]: > 100 µM
TGI [10]: > 100 µM
TGI [11]: > 100 µM
TGI [12]: > 100 µM
TGI [13]: > 100 µM
TGI [14]: > 100 µM

CCC/C(Cl)=N\OC(=O)Nc1ccc(Br)cc1
TGI [1]: 45.2 µM
TGI [2]: 62.6 µM
TGI [3]: 7.19 µM
TGI [4]: 29 µM
TGI [5]: 44.1 µM
TGI [6]: 32.8 µM
TGI [7]: 19.7 µM
TGI [8]: 27.3 µM
TGI [9]: 27.8 µM
TGI [10]: 28.4 µM
TGI [11]: 31 µM
TGI [12]: 32.9 µM
TGI [13]: 32.5 µM
TGI [14]: 29 µM

C/C(=C\c1csc(C)n1)[C@@H]1C[C@@H]2O[C@]2(C)CCC[C@H](C)[C@H](O)[C@@H](C)C(=O)C(C)(C)[C@@H](O)CC(=O)O1 (tested in a mixture with another compound)
TGI [1]: > 1 µM
TGI [2]: > 1 µM
TGI [3]: 0.119 µM
TGI [4]: > 1 µM
GI50 [5]: 0.000721 µM
TGI [5]: > 0.378 µM
TGI [6]: > 1 µM
TGI [7]: > 1 µM
TGI [8]: 0.00205 µM
TGI [9]: > 1 µM
TGI [10]: > 1 µM
TGI [11]: 0.0211 µM
TGI [12]: 0.0348 µM
TGI [13]: > 1 µM
GI50 [14]: 0.00551 µM

NC(=O)CC1(O)C=CC(=O)C=C1
TGI [1]: > 100 µM
TGI [2]: > 100 µM
TGI [3]: > 100 µM
TGI [4]: > 100 µM
TGI [5]: > 100 µM
TGI [6]: > 100 µM
TGI [7]: > 100 µM
TGI [8]: > 100 µM
TGI [9]: > 100 µM
TGI [10]: > 100 µM
TGI [11]: > 100 µM
TGI [12]: > 100 µM
TGI [13]: > 100 µM
TGI [14]: > 100 µM

CC(=O)NNc1nc(C)c(C(/C=C/c2ccccc2O)=N/NC(=O)c2ccncc2)s1
TGI [1]: > 100 µM
TGI [2]: > 100 µM
TGI [3]: > 100 µM
TGI [4]: > 100 µM
TGI [5]: > 100 µM
TGI [6]: > 100 µM
TGI [7]: > 100 µM
TGI [8]: > 100 µM
TGI [9]: > 100 µM
TGI [10]: > 100 µM
TGI [11]: > 100 µM
TGI [12]: > 100 µM
TGI [13]: > 100 µM
TGI [14]: > 100 µM

CC(C)CC(=O)OC[n+]1cccc(-c2c(COC(=O)NC(C)C)c(COC(=O)NC(C)C)c3n2CCC3)c1
TGI [1]: > 100 µM
TGI [2]: > 100 µM
TGI [3]: > 100 µM
TGI [4]: > 100 µM
TGI [5]: > 100 µM
TGI [6]: > 100 µM
TGI [7]: > 100 µM
TGI [8]: > 100 µM
TGI [9]: > 100 µM
TGI [10]: > 100 µM
TGI [11]: > 100 µM
TGI [12]: > 100 µM
TGI [13]: > 100 µM
TGI [14]: > 100 µM

COc1ccc2cc(CNCCCN3CCN(CCCNCc4ccc5cc(OC)ccc5c4)CC3)ccc2c1
TGI [1]: 3.31 µM
TGI [2]: 3.26 µM
TGI [3]: 2.83 µM
TGI [4]: 3.18 µM
TGI [5]: 1.65 µM
TGI [6]: 3.12 µM
TGI [7]: 2.85 µM
TGI [8]: 2.78 µM
TGI [9]: 2.6 µM
TGI [10]: 2.36 µM
TGI [11]: 2.85 µM
TGI [12]: 3.39 µM
TGI [13]: 3.09 µM
TGI [14]: 3.08 µM
